Measured values published in patent US6800659B2, “Compounds for modulating cell proliferation” (HSC Research and Development Limited Partnership, priority 2000, dated 2004).

Key:
Type in all cases: cell-based
normal bone marrow cells = assay: CFU-GEMM assay: normal bone marrow differentiation in culture
Protocol: (§1) The CFU-GEMM assay was performed according to Fauser and Messner (1978, Blood, 52(6) 143-8) and Messner and Fausser (1980, Blut, 41(5) 327-33) with some variations. In brief, heparinized bone marrow cells were layered over Percoll (1.077 gm/ml) (Pharmacia Fine Chemical, Piscataway N.J.) and centrifuged at 400 g at 4° C. for 10 minutes to remove neutrophils and RBCs. The fractionated BM cells at 2×10^5 cells/ml were cultured in IMDM (OCl, Toronto) containing 0.9% (vol/vol) methylcellulose supplemented with 30% FCS (Cansera Rexdale, ON.) or normal human plasma, a cocktail of cytokines containing G-CSF (10 ng/ml, Amgen), IL-3 (40 U/ml, Immunex), MGF (50 ng/ml, Immunex), Erythropoietin (2 u/ml, Epprex) or TPO (10 ng/ml, Amgen), 5×10^−5M β-2-mercaptoethanol and the specified concentration of CR4. The culture mixture was plated in 1 ml volumes into 35 mm petri dishes and incubated at 37° C., 5% CO2 in a humidified atmosphere. All cultures were evaluated at 14 days for the number of BFU-E colonies (defined as aggregates of more than 500 hemoglobinized cells or, 3 or more erythroid subcolonies), OFU-GM colonies (defined as granulocyte or monocyte-macrophage cells or both), CFU-Meg colonies (comprising 4 or more megakaryocytes) and CFU-GEMM colonies (a mixed population comprising of all elements).
as §1, with “1243-8)” for “143-8)”, “concentrations” for “concentration”, “CR19.” for “CR4.”, “hemaglobinized” for “hemoglobinized”, “subcolonies) and CFU-C” for “subcolonies), OFU-GM”, “both).” for “both), CFU-Meg colonies (comprising 4 or more megakaryocytes) and CFU-GEMM colonies (a mixed population comprising of all elements).”
as §1, with “1243-8)” for “143-8)”, “variations (British Journal of Haematology, 1992, 80, p40-48).” for “variations.”, “test compound.” for “CR4.”, “CO2,” for “CO2”, “subcolonies) and CFU-C” for “subcolonies), OFU-GM”, “both).” for “both), CFU-Meg colonies (comprising 4 or more megakaryocytes) and CFU-GEMM colonies (a mixed population comprising of all elements).”

Ly-MN lymphoma cells = assay: Colony growth of Ly-MN lymphoma cells in methylcellulose culture; conditions: colonies at 5 days (FIG. 5)
Protocol: Ly-MN cells were plated in 1 ml volumes, in the absence of exogenous growth factors, into 35 mm petri dishes (Nunc, Gibco) containing IMDM (OCl, Toronto) plus 20% human cord blood plasma in 0.9% (vol/vol) methylcellulose (Fluka, Switzerland) and the indicated concentrations of CR4. Cultures were set at 37° C., 5% CO2 in a humidified atmosphere. Colonies consisting of more than 20 cells were counted at 5 days or earlier using an inverted microscope.

[1] = system: Ramos B cell Burkitt's lymphoma cells; assay: In vitro purging of Ramos B cell Burkitt's lymphoma cells; conditions: 50 μM, 5 hours exposure (FIG. 18)
Protocol: For the purging assay, the cells were resuspended in complete medium with or without CR4 as indicated and incubated at 37° C., 5% CO2 for 0-5 hours. Cells were then washed thoroughly with medium to remove the CR4, resuspended and plated in 1 ml volumes, in the absence of exogenous growth factors, into 35 mm petri dishes (Nunc, Gibco) containing RPMI 1640 (Gibco) plus 10% FCS (Cansera Rexdale, ON.) in 0.9% (vol/vol) methylcellulose (Fluka, Switzerland). Cultures were set at 37° C., 5% CO2 in a humidified atmosphere. Colonies consisting of more than 20 cells were counted at 12 days or earlier using an inverted microscope.

N#C/C(=C\C=C\c1ccc(O)c(O)c1)C(=O)NCc1ccccc1 [CR4, (E,E)-2-(benzylaminocarbonyl)-3-(3,4-dihydroxystyryl)acrylonitrile]
CFU-GM colony numbers (normal bone marrow cells; 10 μM, 14 days (FIG. 1)): significantly stimulated | inhibition of BFU-E colony formation (normal bone marrow cells; 10 μM, 14 days (FIG. 1)): some inhibition | effect upon normal cell survival (normal bone marrow cells; at concentrations equivalent to those inhibiting AML-3 cells: 300-600 nM): no effect | effect upon normal cells (normal bone marrow cells; at concentrations equivalent to those inhibiting HuNS1 cells: high nanomolar to low micromolar (2.5 μM)): no effect | effect upon normal cells (normal bone marrow cells; at concentrations equivalent to those inhibiting Ly-MN cells: nanomolar doses to 2.5 μM): no effect | effect upon normal cells (normal bone marrow cells; at concentrations equivalent to those inhibiting OCl-LY2 cells: high nanomolar to low micromolar (2.5 μM)): no effect | effect upon normal cells (normal bone marrow cells; at concentrations equivalent to those inhibiting Ph+ ALL cells: low nanomolar doses (35-100)): no effect | effect upon normal cells (normal bone marrow cells; at concentrations equivalent to those inhibiting Z119 cells: low nanomolar doses): no effect | toxicity upon normal bone marrow (normal bone marrow cells; doses up to 5 μM, colonies at 14 days (FIG. 1)): negligible toxicity | normal cell growth and differentiation (normal bone marrow cells; low nanomolar doses, long term exposure): unaffected | toxicity to normal cells incubated with compound (normal bone marrow cells; until concentrations of 10-20 μM or greater were achieved): minimal toxicity | inhibition of cell proliferation and survival (Ly-MN lymphoma cells; by 2.5 μM): inhibition | inhibition of cell proliferation and survival (Ly-MN lymphoma cells; nanomolar doses): significantly inhibited | killing of Ramos cells [1]: 70%
